From paper PMC10447463, “Data-mining unveils structure–property–activity correlation of viral infectivity enhancing self-assembling peptides” (Nature Communications, 2023)
Like-named read-outs stand apart in the source and are kept apart here.

Legend:
[1] = Conversion rate (CR) assay with fluorescamine; format: physicochemical; design: key to CR: % = 100−100×filtrate/original fluorescence intensity
Protocol: For ATR FT–IR spectroscopy measurements, 200 µL of the respective 1 mg/mL PNF solution was lyophilized and the resulting powder used for measurement. All spectra were recorded on a Bruker Tensor 27 spectrometer with a diamond crystal as ATR element (PIKE MiracleTM, spectral resolution 2 cm^-1). Every sample was measured with 64 scans. Data were analyzed with OriginLab software and calculation of β–sheet content was conducted according to a previous report. TEM. For TEM measurements 5 µL of PNF fibrils (1 mg/mL) were placed on copper grids coated with carbon and formvar layer (300 mesh, Plano GmbH). After 10 min incubation time, the grids were staining with 4% uranyl acetate solution for 2.5 min and washed with water. Measurements were performed on a Jeol 1400 electron microscope with 120 kV acceleration voltage. CR Assay. For the determination of the amount of peptide monomer converting into nanostructures the amine reactive dye fluorescamine was used analogous to a previous reported protocol. Briefly, 100 µL of the preformed PNF solution was centrifuged in a Vivaspin 500 tube (3 kDa MWCO) to separate fibers from free peptide monomer (16200 x g, 4 °C, 45 min). The filtrate and 100 μL of the non-filtered PNF sample were lyophilized and dissolved in 30 μL DMSO. 10 μL of the filtrate and non-filtered DMSO samples were submitted in a black UV Star® 384 microliter well–plates (Greiner bio–one) and 3 μL of the fluorescamine solution (10 mg/mL, DMSO) was added to measure the fluorescence enhancement. After 20 min of incubation at RT, fluorescence was recorded on an Infinite® M1000 PRO microplate reader (Tecan) at λem = 470 nm upon excitation at λex = 365 nm with 10 nm bandwidths and multiple reads per well (3×3). Measurements were repeated in triplicates and averaged with standard deviation. All values were calculated as n-fold fluorescence enhancement (DMSO only as a reference was set to 1). The conversion rate CR was defined according to the equation Eq. (3).3 CR=100−100×fluorescenceintensityfiltrate/fluorescenceintensityoriginal[%]

[2] = format: physicochemical; conditions: for ThT Cat. / ThT-Fluorescence (categorical): ThT-active if fluorescence at least twice the control
Outline: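 Preformed peptide fibrils (1 mg/mL) mixed with 50 µM ThT in PBS, 15 min at RT, fluorescence ex 440/em 488 nm versus PBS blank, triplicates. Zeta potential: peptides at 1 mg/mL in PBS pH 7.4, aged 1 d at RT, diluted in 1 mM KCl, Smoluchowski from electrophoretic mobility.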

[3] = system: HIV-1 infection of TZM-bl cells; assay: HIV-1 infectivity enhancement assay, β-galactosidase luminescence; format: cell-based; conditions: for Rel-EFC: infection relative to EF-C (QCKIKQIINMWQ = 1); for Log10 Infection Rel EFC: log10 of infection relative to EF-C; for Log Infectivity: Log10 infection relative to EF-C, asymmetric std dev errors; for Log10 Infection Rel EF-C: HIV-1 infection of TZM-bl cells; for Abs. Inf.: β-galactosidase luminescence; for Log10 Inf. rel. to EF-C: log10 of HIV-1 infection of TZM-bl cells relative to EF-C (EF-C = 0); for Log10 of Rel to EFC (Feb2021): Log10 of infection relative to EF-C, all peptides of FigS16
[4] = Fig. S7 panel B, conversion rate, fluorescamine assay
[5] = conversion rate, fluorescamine assay
[6] = Fig. S7 panel A (plotted against β-sheet content), TZM-bl cells
[7] = Fig. S7 panel B (plotted against CR), rounded to two decimals, TZM-bl cells
[8] = Log10 of infection rate relative to EF-C, Figure 3A source data
[9] = infection rate relative to EF-C, log10, data of Figure 2D
[10] = infection rate relative to EF-C, log10, source data of Figure 2C
[11] = absolute infection signal, HIV-1 on TZM-bl cells
[12] = ThT fluorescence category, 1 if Rel. ThT >2

## QCKAKAQANMWQ
[1]; [4]
  CR / %: 89.3%
[1]; conversion of monomer to nanostructures, 3 kDa MWCO filtration, fluorescamine, ex 365 / em 470 nm, triplicate
  CR / %: 89%
[1]; [5]
  CR: 89.28
[2]; Fig S10 panel D
  Tht category (> 2 to blank = +): 0 (ThT-inactive (N-Fold <2))
[2]; Fig S10 panel E
  ThT Cat.: 0 (ThT-inactive (N-Fold <2))
[2]; FigS12 panel A
  Tht category (> 2 to blank = +): 0 (ThT-inactive (N-Fold <2))
[2]; FigS12 panel B
  ThT Cat,: 0 (ThT-inactive (N-Fold <2))
[2]; ThT category, 1 if Rel. ThT >2
  ThT Cat,: 0 (ThT-inactive (N-Fold <2))
  ThT Cat.: 0 (ThT-inactive (N-Fold <2))
[2]
  ThT Cat. / ThT-Fluorescence (categorical): 0 (ThT-inactive (N-Fold <2))
[2]; n-fold ThT fluorescence vs control (PBS, 10% DMSO), 4 µL 1 mg/mL fibrils + 20 µL 50 µM ThT, 15 min RT, ex 440 / em 488 nm, triplicate
  Rel. ThT: 1.5
[3]; 1.3 µM peptide
  Rel-EFC: 0,07
  Log10 Infection Rel EFC: -1,14
[3]; [6]
  Log Infectivity: -1.144
[3]; [7]
  Log Infectivity: -1.14
[3]; [8]
  Log10 Infection Rel EF-C: -1.14
[3]; [9]
  Log10 Infection Rel EF-C: -1.144
[3]; [10]
  Log10 Infection Rel EF-C: -1.144
[3]; HIV-1 infection relative to EF-C, Fig 23 plot, panels A and B, mean of 3 values
  Inf. rel. EF-C: 0.1207
[3]; HIV-1 infection relative to EF-C, Fig 23 plot, single data point, replicate 1
  Inf. rel. EF-C: 0.1632
[3]; HIV-1 infection relative to EF-C, Fig 23 plot, single data point, replicate 2
  Inf. rel. EF-C: 0.09951
[3]; HIV-1 infection relative to EF-C, Fig 23 plot, single data point, replicate 3
  Inf. rel. EF-C: 0.09928
[3]; absolute infection rate, peptide 1.3 µM on cells, virus preincubated 10 min with fibrils, read 3 days post infection, mean of triplicate
  Abs. Inf. / RLU s-1: 2767 RLU s-1
[3]; [11]
  Abs. Inf.: 2767
[3]
  Log10 Inf. rel. to EF-C: -1.144
[3]; n-fold infection vs virus only, relative to that of EF-C, 1.3 µM peptide
  Inf. rel. EF-C: 0.07

## RGDKIKIQINMWQ
[1]; [4]
  CR / %: 66%
[1]; [5]
  CR: 66
[2]; Fig S10 panel D
  Tht category (> 2 to blank = +): 0 (ThT-inactive (N-Fold <2))
[2]; Fig S10 panel E
  ThT Cat.: 0 (ThT-inactive (N-Fold <2))
[2]; ThT category, 1 if Rel. ThT >2
  ThT Cat,: 0 (ThT-inactive (N-Fold <2))
[2]; [12]
  ThT Cat.: 0 (ThT-inactive (N-Fold <2))
[2]
  ThT Cat. / ThT-Fluorescence (categorical): 0 (ThT-inactive (N-Fold <2))
[3]; 1.3 µM peptide
  Rel-EFC: 0,76
  Log10 Infection Rel EFC: -0,12
[3]; [6]
  Log Infectivity: -0.1175
[3]; [7]
  Log Infectivity: -0.12
[3]; [8]
  Log10 Infection Rel EF-C: -0.12
[3]; [9]
  Log10 Infection Rel EF-C: -0.1175
[3]; [10]
  Log10 Infection Rel EF-C: -0.1175
[3]
  Log10 of Rel to EFC (Feb2021): -0.12

## KFKFQFNM
[1]; [4]
  CR / %: 94.8%
[1]; [5]
  CR: 94.77
[2]; Fig S10 panel D
  Tht category (> 2 to blank = +): 0 (ThT-inactive (N-Fold <2))
[2]; Fig S10 panel E
  ThT Cat.: 0 (ThT-inactive (N-Fold <2))
[2]; ThT category, 1 if Rel. ThT >2
  ThT Cat,: 0 (ThT-inactive (N-Fold <2))
  ThT Cat.: 0 (ThT-inactive (N-Fold <2))
[2]
  ThT Cat. / ThT-Fluorescence (categorical): 0 (ThT-inactive (N-Fold <2))
[3]; 1.3 µM peptide
  Rel-EFC: 0,47
  Log10 Infection Rel EFC: -0,33
[3]; [6]
  Log Infectivity: -0.3265
[3]; [7]
  Log Infectivity: -0.33
[3]; [8]
  Log10 Infection Rel EF-C: -0.33
[3]; [9]
  Log10 Infection Rel EF-C: -0.3265
[3]; [10]
  Log10 Infection Rel EF-C: -0.3265
[3]
  Log10 of Rel to EFC (Feb2021): -0.33
  Log10 Inf. rel. to EF-C: -0.3265
[3]; [11]
  Abs. Inf.: 7067

## RGDCKFKFQF
[1]; [4]
  CR / %: 85.5%
[1]; [5]
  CR: 85.47
[2]; Fig S10 panel D
  Tht category (> 2 to blank = +): 1 (ThT. Cat is 1, if Rel. ThT >2)
[2]; Fig S10 panel E
  ThT Cat.: 1 (ThT. Cat is 1, if Rel. ThT >2)
[2]; ThT category, 1 if Rel. ThT >2
  ThT Cat,: 1 (ThT. Cat is 1, if Rel. ThT >2)
[2]; [12]
  ThT Cat.: 1 (ThT. Cat is 1, if Rel. ThT >2)
[2]
  ThT Cat. / ThT-Fluorescence (categorical): 1 (ThT. Cat is 1, if Rel. ThT >2)
[3]; 1.3 µM peptide
  Rel-EFC: 0,15
  Log10 Infection Rel EFC: -0,82
[3]; [6]
  Log Infectivity: -0.8186
[3]; [7]
  Log Infectivity: -0.82
[3]; [8]
  Log10 Infection Rel EF-C: -0.82
[3]; [9]
  Log10 Infection Rel EF-C: -0.8186
[3]; [10]
  Log10 Infection Rel EF-C: -0.8186
[3]
  Log10 of Rel to EFC (Feb2021): -0.82

## EIEIQINM
[1]; [4]
  CR / %: 78.4%
[1]; [5]
  CR: 78.43
[2]; Fig S10 panel D
  Tht category (> 2 to blank = +): 0 (ThT-inactive (N-Fold <2))
[2]; Fig S10 panel E
  ThT Cat.: 0 (ThT-inactive (N-Fold <2))
[2]; FigS12 panel A
  Tht category (> 2 to blank = +): 0 (ThT-inactive (N-Fold <2))
[2]; FigS12 panel B
  ThT Cat,: 0 (ThT-inactive (N-Fold <2))
[2]; ThT category, 1 if Rel. ThT >2
  ThT Cat,: 0 (ThT-inactive (N-Fold <2))
  ThT Cat.: 0 (ThT-inactive (N-Fold <2))
[2]
  ThT Cat. / ThT-Fluorescence (categorical): 0 (ThT-inactive (N-Fold <2))
[3]; 1.3 µM peptide
  Rel-EFC: 0,04
  Log10 Infection Rel EFC: -1,44
[3]; [6]
  Log Infectivity: -1.44
[3]; [7]
  Log Infectivity: -1.44
[3]; [8]
  Log10 Infection Rel EF-C: -1.44
[3]; [9]
  Log10 Infection Rel EF-C: -1.44
[3]; [10]
  Log10 Infection Rel EF-C: -1.44
[3]; absolute HIV-1 infection signal, TZM-bl cells
  Abs. Inf.: 203.3
[3]; peptide 0.26 µM, mean of n = 3, Figure 4A
  Abs. Infection at 0.26 µM: 203.3
[3]; peptide 0.26 µM, replicate 1, absolute infection signal, Figure 4A
  Infect 1 0.26 µM: 203.33
[3]; peptide 0.26 µM, replicate 2, absolute infection signal, Figure 4A
  Infect 2 0.26 µM: 123.33
[3]; peptide 0.26 µM, replicate 3, absolute infection signal, Figure 4A
  Infect 3 0.26 µM: 283.33
[3]; peptide 1.3 µM, mean of n = 3, Figure 4A
  Abs. Infection at 1.3 µM: 203.3
[3]; peptide 1.3 µM, replicate 1, absolute infection signal, Figure 4A
  Infect 1 .3 µM: 253.33
[3]; peptide 1.3 µM, replicate 2, absolute infection signal, Figure 4A
  Infect 2 1.3µM: 173.33
[3]; peptide 1.3 µM, replicate 3, absolute infection signal, Figure 4A
  Infect 3 1.3 µM: 183.33

## CSISIQINM
[1]; [4]
  CR / %: 86%
[1]; [5]
  CR: 86
[2]; Fig S10 panel D
  Tht category (> 2 to blank = +): 1 (ThT. Cat is 1, if Rel. ThT >2)
[2]; Fig S10 panel E
  ThT Cat.: 1 (ThT. Cat is 1, if Rel. ThT >2)
[2]; ThT category, 1 if Rel. ThT >2
  ThT Cat,: 1 (ThT. Cat is 1, if Rel. ThT >2)
[2]; [12]
  ThT Cat.: 1 (ThT. Cat is 1, if Rel. ThT >2)
[2]
  ThT Cat. / ThT-Fluorescence (categorical): 1 (ThT. Cat is 1, if Rel. ThT >2)
[3]; 1.3 µM peptide
  Rel-EFC: 0,2
  Log10 Infection Rel EFC: -0,7
[3]; [6]
  Log Infectivity: -0.7027
[3]; [7]
  Log Infectivity: -0.7
[3]; [8]
  Log10 Infection Rel EF-C: -0.7
[3]; [9]
  Log10 Infection Rel EF-C: -0.7027
[3]; [10]
  Log10 Infection Rel EF-C: -0.7027
[3]
  Log10 of Rel to EFC (Feb2021): -0.7
